Tested on: breakthrough HE episode in subjects with hepatic encephalopathy (HE)
Test: Time to first breakthrough (overt) HE episode, first study, rifaximin vs placebo
Type: in vivo, human
Conditions: for Cumulative number of events / Number of events / Probability of no breakthrough overt HE (Kaplan-Meier event-free estimate): ITT, first breakthrough overt HE
Description: An increase in the Conn score of greater than or equal to grade 2 was considered as a breakthrough HE episode.
An efficacy endpoint was the time to first breakthrough overt HE episode. A breakthrough overt HE episode was defined as an increase of Conn score to Grade ≥2 (e.g., 0) or 1 to ≥2) or an increase in Conn and asterixis score of 1 grade each for those subjects who entered the study with a Conn score of 0. Time to breakthrough overt HE episode was the duration from time of first dose of study drug to the first breakthrough overt HE episode. […] Subjects who terminated early for reasons other than breakthrough overt HE were contacted at 6 months from randomization to determine if subjects had experienced a breakthrough overt HE episode or other outcome (e.g., mortality status); and, if the subject had no breakthrough overt HE event prior to contact, he/she was censored at the time of contact. […] Subjects in the study had ≥2 episodes of overt HE equivalent to Conn score ≥2 within 6 months prior to screening (i.e., subjects had documented recurrent, overt HE). At the baseline assessment, subjects were in remission with a Conn score of 0 or 1. A breakthrough overt HE episode, as defined above, was a marked deterioration in neurological function.
Presented herein are the results of the first study and second study. […] The primary efficacy endpoint was the time to breakthrough overt HE. Breakthrough overt HE was defined as an increase of Conn score to Grade ≥2 (e.g., 0 or 1 to ≥2) or an increase in Conn and asterixis score of 1 grade each for those subjects who entered the study with a Conn score of 0. Subjects discontinued from the study at the time of breakthrough overt HE episode. After participation in the first study, subjects had the option to enroll in the open-label, treatment-extension study (the second study).
FIG. 1 illustrates Kaplan-Meier estimates of time to first breakthrough overt HE episode by treatment group in the ITT population. Table 18 presents Kaplan-Meier estimates of the proportions of subjects who experienced breakthrough overt HE over the course of the Treatment Period and results of statistical analyses. […] Subjects who terminated early for reasons other than breakthrough overt HE (eg, liver transplant, AE, subject request) were contacted at 6 months from date of randomization to determine if subjects had experienced a breakthrough overt HE episode or other outcome (e.g., mortality status). Subjects without breakthrough overt HE were censored at the time of contact or death, whichever was earlier.

[1] = breakthrough HE episode by baseline Conn score level, 550 mg BID, N = 93, Days >= 168
[2] = breakthrough HE episode by baseline Conn score level; 550 mg BID; N = 93; Days [0-28)
[3] = breakthrough HE episode by baseline Conn score level; 550 mg BID; N = 93; Days [28-56)
[4] = breakthrough HE episode by baseline Conn score level; 550 mg BID; N = 93; Days [56-84)
[5] = breakthrough HE episode by baseline Conn score level; 550 mg BID; N = 93; Days [84-140)
[6] = breakthrough HE episode by baseline Conn score level; 550 mg BID; N = 93; Days [140-168)
[7] = breakthrough HE episode by baseline MELD score level, 550 mg BID, N = 11, Days >=168
[8] = breakthrough HE episode by baseline MELD score level; 550 mg BID; N = 11; Days [0-28)
[9] = breakthrough HE episode by baseline MELD score level; 550 mg BID; N = 11; Days [28-56)
[10] = breakthrough HE episode by baseline MELD score level; 550 mg BID; N = 11; Days [56-84)
[11] = breakthrough HE episode by baseline MELD score level; 550 mg BID; N = 11; Days [84-140)
[12] = breakthrough HE episode by baseline MELD score level; 550 mg BID; N = 11; Days [140-168)
[13] = breakthrough HE episode by baseline MELD score level, 550 mg BID, N = 34, Days >=168
[14] = breakthrough HE episode by baseline MELD score level; 550 mg BID; N = 34; Days [0-28)
[15] = breakthrough HE episode by baseline MELD score level; 550 mg BID; N = 34; Days [28-56)
[16] = breakthrough HE episode by baseline MELD score level; 550 mg BID; N = 34; Days [56-84)
[17] = breakthrough HE episode by baseline MELD score level; 550 mg BID; N = 34; Days [84-140)
[18] = breakthrough HE episode by baseline MELD score level; 550 mg BID; N = 34; Days [140-168)
[19] = breakthrough HE episode by baseline MELD score level, 550 mg BID, N = 85, Days >=168
[20] = breakthrough HE episode by baseline MELD score level; 550 mg BID; N = 85; Days [0-28)
[21] = breakthrough HE episode by baseline MELD score level; 550 mg BID; N = 85; Days [28-56)
[22] = breakthrough HE episode by baseline MELD score level; 550 mg BID; N = 85; Days [56-84)
[23] = breakthrough HE episode by baseline MELD score level; 550 mg BID; N = 85; Days [84-140)
[24] = breakthrough HE episode by baseline MELD score level; 550 mg BID; N = 85; Days [140-168)
[25] = breakthrough HE episode by prior lactulose use, 550 mg BID, N = 123, Days >=168
[26] = breakthrough HE episode by prior lactulose use; 550 mg BID; N = 123; Days [0-28)
[27] = breakthrough HE episode by prior lactulose use; 550 mg BID; N = 123; Days [28-56)
[28] = breakthrough HE episode by prior lactulose use; 550 mg BID; N = 123; Days [56-84)
[29] = breakthrough HE episode by prior lactulose use; 550 mg BID; N = 123; Days [84-140)
[30] = breakthrough HE episode by prior lactulose use; 550 mg BID; N = 123; Days [140-168)
[31] = breakthrough HE episode by prior lactulose use, 550 mg BID, N = 127, Days >=168
[32] = breakthrough HE episode by prior lactulose use; 550 mg BID; N = 127; Days [0-28)
[33] = breakthrough HE episode by prior lactulose use, 550 mg BID, N = 127, Days [28-56]
[34] = breakthrough HE episode by prior lactulose use, 550 mg BID, N = 127, Days [56-84]
[35] = breakthrough HE episode by prior lactulose use; 550 mg BID; N = 127; Days [84-140)
[36] = breakthrough HE episode by prior lactulose use; 550 mg BID; N = 127; Days [140-168)
[37] = breakthrough HE episode, 550 mg BID, N = 140, Days >=168
[38] = breakthrough HE episode; 550 mg BID; N = 140; Days [0-28)
[39] = breakthrough HE episode; 550 mg BID; N = 140; Days [28-56)
[40] = breakthrough HE episode; 550 mg BID; N = 140; Days [56-84)
[41] = breakthrough HE episode; 550 mg BID; N = 140; Days [84-140)
[42] = breakthrough HE episode; 550 mg BID; N = 140; Days [140-168)
[43] = first study, N = 140, treatment interval 0 to <28 days
[44] = first study, N = 140, treatment interval 28 to 56 days
[45] = first study, N = 140, treatment interval 56 to <84 days
[46] = first study, N = 140, treatment interval 84 to <149 days
[47] = first study, N = 140, treatment interval 140 to <168 days
[48] = first study, N = 140, treatment interval ≥168 days

CO[C@H]1/C=C/O[C@@]2(C)Oc3c(C)c(O)c4c(O)c(c5c(nc6cc(C)ccn65)c4c3C2=O)NC(=O)/C(C)=C\C=C\[C@H](C)[C@H](O)[C@@H](C)[C@@H](O)[C@@H](C)[C@H](OC(C)=O)[C@@H]1C [Rifaximin]
Cumulative Occurrences of Events [1]: 19 | Occurrences of Events [1]: 0 | Survival [1]: 0.7924 | Occurrences of Events [2]: 11 | Survival [2]: 1.0000 | Occurrences of Events [3]: 3 | Survival [3]: 0.8817 | Occurrences of Events [4]: 1 | Survival [4]: 0.8491 | Occurrences of Events [5]: 3 | Survival [5]: 0.8380 | Occurrences of Events [6]: 1 | Survival [6]: 0.8042 | Cumulative Occurrences of Events [7]: 4 | Occurrences of Events [7]: 0 | Survival [7]: 0.6364 | Cumulative Occurrences of Events [8]: 1 | Occurrences of Events [8]: 1 | Survival [8]: 1.0000 | Cumulative Occurrences of Events [9]: 1 | Occurrences of Events [9]: 0 | Survival [9]: 0.9091 | Cumulative Occurrences of Events [10]: 4 | Occurrences of Events [10]: 3 | Survival [10]: 0.9091 | Cumulative Occurrences of Events [11]: 4 | Occurrences of Events [11]: 0 | Survival [11]: 0.6364 | Cumulative Occurrences of Events [12]: 4 | Occurrences of Events [12]: 0 | Survival [12]: 0.6364 | Cumulative Occurrences of Events [13]: 2 | Occurrences of Events [13]: 0 | Survival [13]: 0.9398 | Cumulative Occurrences of Events [14]: 1 | Occurrences of Events [14]: 1 | Survival [14]: 1.0000 | Cumulative Occurrences of Events [15]: 1 | Occurrences of Events [15]: 0 | Survival [15]: 0.9706 | Cumulative Occurrences of Events [16]: 1 | Occurrences of Events [16]: 0 | Survival [16]: 0.9706 | Cumulative Occurrences of Events [17]: 2 | Occurrences of Events [17]: 1 | Survival [17]: 0.9706 | Cumulative Occurrences of Events [18]: 2 | Occurrences of Events [18]: 0 | Survival [18]: 0.9398 | Cumulative Occurrences of Events [19]: 20 | Occurrences of Events [19]: 0 | Survival [19]: 0.7580 | Cumulative Occurrences of Events [20]: 8 | Occurrences of Events [20]: 8 | Survival [20]: 1.0000 | Cumulative Occurrences of Events [21]: 10 | Occurrences of Events [21]: 2 | Survival [21]: 0.9059 | Cumulative Occurrences of Events [22]: 13 | Occurrences of Events [22]: 3 | Survival [22]: 0.8822 | Cumulative Occurrences of Events [23]: 19 | Occurrences of Events [23]: 6 | Survival [23]: 0.8459 | Cumulative Occurrences of Events [24]: 20 | Occurrences of Events [24]: 1 | Survival [24]: 0.7713 | Cumulative Occurrences of Events [25]: 29 | Occurrences of Events [25]: 0 | Survival [25]: 0.7586 | Cumulative Occurrences of Events [26]: 12 | Occurrences of Events [26]: 12 | Survival [26]: 1.0000 | Cumulative Occurrences of Events [27]: 16 | Occurrences of Events [27]: 4 | Survival [27]: 0.9024 | Cumulative Occurrences of Events [28]: 21 | Occurrences of Events [28]: 5 | Survival [28]: 0.8696 | Cumulative Occurrences of Events [29]: 28 | Occurrences of Events [29]: 7 | Survival [29]: 0.8278 | Cumulative Occurrences of Events [30]: 29 | Occurrences of Events [30]: 1 | Survival [30]: 0.7678 | Cumulative Occurrences of Events [31]: 29 | Occurrences of Events [31]: 0 | Survival [31]: 0.7666 | Cumulative Occurrences of Events [32]: 12 | Occurrences of Events [32]: 12 | Survival [32]: 1.0000 | Cumulative Occurrences of Events [33]: 16 | Occurrences of Events [33]: 4 | Survival [33]: 0.9055 | Cumulative Occurrences of Events [34]: 22 | Occurrences of Events [34]: 6 | Survival [34]: 0.8737 | Cumulative Occurrences of Events [35]: 28 | Occurrences of Events [35]: 6 | Survival [35]: 0.8252 | Cumulative Occurrences of Events [36]: 25 | Occurrences of Events [36]: 1 | Survival [36]: 0.7754 | Cumulative Occurrences of Events [37]: 31 | Occurrences of Events [37]: 0 | Survival [37]: 0.7740 | Cumulative Occurrences of Events [38]: 13 | Occurrences of Events [38]: 13 | Survival [38]: 1.0000 | Cumulative Occurrences of Events [39]: 17 | Occurrences of Events [39]: 4 | Survival [39]: 0.9071 | Cumulative Occurrences of Events [40]: 23 | Occurrences of Events [40]: 6 | Survival [40]: 0.8783 | Cumulative Occurrences of Events [41]: 30 | Occurrences of Events [41]: 7 | Survival [41]: 0.8344 | Cumulative Occurrences of Events [42]: 31 | Occurrences of Events [42]: 1 | Survival [42]: 0.7820 | reduction, compared with placebo, in the risk of a breakthrough overt HE episode after adjusting for prognostic factors (first study): 60% | Cumulative number of events [43]: 13 | Number of events [43]: 13 | Probability of no breakthrough overt HE (Kaplan-Meier event-free estimate) [43]: 1.0000 | Cumulative number of events [44]: 17 | Number of events [44]: 4 | Probability of no breakthrough overt HE (Kaplan-Meier event-free estimate) [44]: 0.9071 | Cumulative number of events [45]: 23 | Number of events [45]: 6 | Probability of no breakthrough overt HE (Kaplan-Meier event-free estimate) [45]: 0.8783 | Cumulative number of events [46]: 30 | Number of events [46]: 7 | Probability of no breakthrough overt HE (Kaplan-Meier event-free estimate) [46]: 0.8344 | Cumulative number of events [47]: 31 | Number of events [47]: 1 | Probability of no breakthrough overt HE (Kaplan-Meier event-free estimate) [47]: 0.7820 | Cumulative number of events [48]: 31 | Number of events [48]: 0 | Probability of no breakthrough overt HE (Kaplan-Meier event-free estimate) [48]: 0.7740 | proportion of subjects with breakthrough overt HE (first study, rifaximin group): 22% | subjects who experienced breakthrough overt HE episodes (of 140) (first study, rifaximin group, 6-month period, up to Day 170): 31 | time to breakthrough HE event vs placebo (FIG. 2, Kaplan Meier) (in vivo): increased time to breakthrough HE events

Source: patent publication US12697326B2, “Methods of treating hepatic encephalopathy” (SALIX PHARMACEUTICALS, INC., priority 2008, dated 2026)
